# Assay results: US20100150911A1, “METHODS AND SYSTEMS OF TREATING AGE-RELATED MACULAR-DEGENERATION” (OPTO GLOBAL HOLDINGS PTY LTD, priority 2007, published 2010)
# Tested on: subfoveal choroidal neovascularization (CNV) secondary to age-related macular degeneration (AMD)
# Experiment: Indocyanine green mediated photothrombosis (i-MP) with and without intravitreal Bevacizumab in patients (Example 4)
# Type: in vivo, human
substance,measurement,setting,value
"i-MP+intravitreal Bevacizumab: i-MP combined with an intravitreal injection of Bevacizumab (Avastin), an anti-VEGF compound",need to perform a second treatment session,"10 months of follow-up, 25 eyes",not required
same,eyes with improvement of the visual acuity in 2 lines (Group B: almost 2 lines) with staining in the fluorescein angiography,"10 months of follow-up, 25 eyes per group",68%
same,response of the choroidal neovascular membranes (fluorescein angiography and OCT),"10 months of follow-up, compared with i-MP alone",responded better
same,visual acuity obtained by a single patient,"left eye, occult CNV, visual acuity 0.1 before treatment, 10 months after treatment",0.3
